Like-named read-outs stand apart in the source and are kept apart here.
Columns and labels:
[1] = tested on: HEK293; experiment: MTT assay, HEK293; type: cell-based, human; settings: read-out: IC50 ± SD Kidney HEK293
Method: (§2) The concentration of the tested compounds that produced a 50% inhibition of cell growth (IC50) was determined.
(§3) A panel of cancer cell lines, including cervical (OV2008 and HeLa), breast (MDA-MB-231), lung (A549) and colon (LOVO), prostate (DU145), human embryonic kidney cells (HEK293), human colon fibroblast cells (CRL1459), and Chinese hamster ovary cells (CHO), were grown as adherent monolayers in flasks containing Dulbecco’s modified Eagle medium (DMEM), supplemented with 10% fetal bovine serum (FBS) and 1% penicillin and streptomycin, in a humidified incubator with 5% CO2 at 37 °C.
(§4) The cells were seeded evenly (180 μL/well) in 96-well plates, at a density of 3000–5000 cells/well and incubated with serial dilutions of the compounds ranging from 0.1 to 100 μM. The MTT dye (4 mg/ml) was added after 72 h of incubation and incubated with the cells for an additional 4 h at 37 °C, allowing the viable cells to biotransform the yellow-colored MTT into dark-blue formazan crystals. Following incubation, the medium was aspirated, and the formazan crystals were dissolved by adding 100 μL of DMSO to each well. Cytation™ 5 and Cytation™ 7 multi-mode detector (Bio Tek Instruments, Winooski, VT, USA) was used to determine the absorbance readings at a wavelength of 570 nm. The IC50 values were determined based on 3 separate experiments, with each experiment carried out in triplicate.

[2] = tested on: A549; experiment: MTT assay, A549; type: cell-based; settings: Homo sapiens, A549, 72 h, read-out: IC50 ± SD Lung A549
Method: as §2, §3, §4

[3] = tested on: DU145; experiment: MTT assay, DU145; type: cell-based; settings: Homo sapiens, DU-145, 72 h, read-out: IC50 ± SD Prostate DU145
Method: as §2, §3, §4

[4] = tested on: OV2008; experiment: MTT assay, OV2008; type: cell-based; settings: 72 h, read-out: IC50 ± SD Cervical OV2008
Method: as §2, §3
(§5) The cells were seeded evenly (180 μL/well) in 96-well plates, at a density of 3000–5000 cells/well and incubated with serial dilutions of the compounds ranging from 0.1 to 100 μM. The MTT dye (4 mg/ml) was added after 72 h of incubation and incubated with the cells for an additional 4 h at 37 °C, allowing the viable cells to biotransform the yellow-colored MTT into dark-blue formazan crystals. Following incubation, the medium was aspirated, and the formazan crystals were dissolved by adding 100 μL of DMSO to each well. Cytation™ 5 and Cytation™ 7 multi-mode detector (Bio Tek Instruments, Winooski, VT, USA) was used to determine the absorbance readings at a wavelength of 570 nm. The IC50 values were determined based on 3 separate experiments, with each experiment carried out in triplicate. The selectivity of the compounds was determined by comparing their IC50 values in cervical cancer compared to the normal epithelial cell lines, HEK293, CHO, and CRL1459.

[5] = tested on: HeLa; experiment: MTT assay, HeLa; type: cell-based; settings: Homo sapiens, HeLa, 72 h, read-out: IC50 ± SD Cervical HeLa
Method: Table S1. The antiproliferative efficacy of the DML1-DML12 compounds on the proliferation of cervical cancer cell line.
Figure S1. The efficacy of DML6 in HeLa cancer cells. The cell-viability curve produced by HeLa cells treated with
vehicle (0 μM), 5 or 10 μM of DML6 after 72 h of incubation. Cell survival was determined using the MTT assay. The
IC50 values are represented as the means ± SD of three independent experiments performed in triplicate. […]

[6] = tested on: cancer cell lines; experiment: MTT assay, panel of cancer cell lines; type: cell-based
Method: as §2, §3, §5

[7] = tested on: human colon fibroblast cells (CRL1459); experiment: MTT assay, CRL1459; type: cell-based; settings: 72 h
Method: as §2, §3
(§6) The cells were seeded evenly (180 μL/well) in 96-well plates, at a density of 3000–5000 cells/well and incubated with serial dilutions of the compounds ranging from 0.1 to 100 μM. […] Cytation™ 5 and Cytation™ 7 multi-mode detector (Bio Tek Instruments, Winooski, VT, USA) was used to determine the absorbance readings at a wavelength of 570 nm. The IC50 values were determined based on 3 separate experiments, with each experiment carried out in triplicate. The selectivity of the compounds was determined by comparing their IC50 values in cervical cancer compared to the normal epithelial cell lines, HEK293, CHO, and CRL1459.

[8] = tested on: OV2008 cells; experiment: IncuCyte live-cell morphology study (confluence); type: cell-based; settings: 72 hours, vehicle ≈70%
Method: Real-time live cell analysis was performed as previously described. In order to determine the morphological changes induced by DML6, OV2008 cells were seeded at 4000 cells/well in a 96-well plate and incubated overnight at 37 °C, with 5% CO2 in an incubator. […] IncuCyte was then programmed to capture the images at different time points (0, 24, 48 and 72 h), using the integrated IncuCyte S3 software version 2020B (Essen BioScience, Ann Arbor, MI, USA).

[9] = tested on: OV2008 cells; experiment: IncuCyte Cytotox green assay; type: cell-based; settings: OV2008, up to 72 h, vs vehicle
From the text: The IncuCyte cytotox green reagent (Catalog # 4633, Essence BioScience, Ann Arbour, MI, USA) was used for real time quantification of dead OV2008 cells as previously described. This dye will only penetrate into cells with non-intact membranes (dead or non-viable cells). As the cells die, the increase in cell membrane permeability allows the reagent to enter the nucleus and bind to DNA, which emits green fluorescence at an excitation maximum of 491 nm and emission maximum of 509 nm. OV2008 cells were seeded (100 µL/well) in a 96-well plate and incubated overnight. The following day, DML6 (0.1–100 μM) was prepared at 3X the final assay concentrations in diluted IncuCyte™ Cytotox Reagent and added to each well (50 µL/well). The cells were immediately placed in the IncuCyte® S3 Live-Cell Analysis System (Essen BioScience, Ann Arbor, MI, USA) and images were taken every 2 h up to 72 h and analyzed using the integrated IncuCyte S3 software version 2020B (Essen BioScience, Ann Arbor, MI, USA).

[10] = tested on: Bcl-2; experiment: Western blot, Bcl-2; type: cell-based; settings: OV2008, 20 μM, 24 h, vs vehicle
Method: (§1) The OV2008 cells were lysed to obtain total cellular protein fractions using Mammalian Protein Extraction Reagent (Catalog # 78501, M-PER™, Thermo Fisher Scientific, Waltham, MA, USA). The cells were seeded in […] at a density of 1 × 10^6 and incubated with 5 or 20 µM of DML6 or 1 µM of doxorubicin (Catalog # T1-2-, TargetMol, Boston, MA, USA) (a positive control) for 24 h. The following day, the cells were washed with ice-cold PBS, scraped using a cell scrapper and collected in Eppendorf tubes. The tubes were centrifuged at 1500 RPM at 4 °C for 5 min. The solution was discarded and replaced with 70 µL of the cell lysis buffer (M-PER reagent, 100 mM Sodium Orthovanadate (NaOV) at a final concentration of 2.5 mM) and a 100X protease inhibitor cocktail (Catalog # P8340, Sigma-Aldrich, St. Louis, MO, USA, final concentration of 1X, containing of aprotinin, bestatin, E-64, leupeptin and pepstatin). Thirty minutes later, the resulting solution was centrifuged at 10,000 RPM at 4 °C for 5 min and the supernatant was collected. The protein concentration of the cell extracts was determined using the bicinchoninic acid (BCA) (Catalog # 786-570, G-Biosciences, Saint Louis, MO, USA) quantification assay. […] Finally, the amount of protein in each blot was quantified using the Image J software (NIH, Bethesda, MD, USA). All data were calculated as a ratio to β-actin.

[11] = tested on: Bak; experiment: Western blot, Bak; type: cell-based; settings: OV2008, 5 and 20 μM, 24 h, vs vehicle
Method: as §1

[12] = tested on: caspase-9; experiment: Western blot, cleaved caspase-9; type: cell-based; settings: OV2008, 20 μM, 24 hours, vs vehicle
Method: as §1

[13] = tested on: caspase-7; experiment: Western blot, cleaved caspase-7; type: cell-based; settings: OV2008, 5 or 20 µM, vs vehicle
Method: as §1

[14] = tested on: Chinese hamster ovary cells (CHO)
Method: as §2, §3, §6

With `CN(C)c1ccc(/C=C/C(=O)c2ccc(Cl)cc2Cl)cc1` [DML6, (E)-1-[2,4-dichlorophenyl]-3-(4-(dimethylamino)phenyl)prop-2-en-1-one] as the compound, how does the IC50 ([1]; 72 h) read?
The IC50 was 70 ± 42.4 µM.

What about the IC50 ([1]; Homo sapiens, HEK293, 72 h) of the same compound?
The IC50 was greater than 65 µM.

What about the IC50 [2] of the same compound?
Its IC50 is 84.9 ± 21.4 µM.

What about the IC50 [3] of the same compound?
The IC50 was 96.9 ± 4.4 µM.

What about the IC50 [4] of the same compound?
Its IC50 is 7.8 µM.

And the IC50 [5]?
Its IC50 is 9.08 ± 0.69 µM.

And the “anti-proliferative efficacy in a wide range of cancer cell lines, compared to normal cells” value [6]?
Its value is “moderate to good anti-proliferative efficacy”.

And the IC50 ([6]; range over the cell lines, read-out: IC50 values in all of the cancer cell lines)?
Its IC50 is 7.8 to 91.9 µM.

What about the “cytotoxicity in normal cells, CRL1459” value [7] of the same compound?
The value was “did not produce significant cytotoxicity”.

And the “confluence of OV2008” value ([8]; 5 µM)?
Its value is “≈ 40%”.

What about the “confluence of OV2008” value ([8]; 20 µM) of the same compound?
The value was “≈ 10%”.

And the “Cytotox green fluorescent signal (dead cells) over time” value [9]?
The value was “increased significantly”.

And the “levels of the anti-apoptotic protein Bcl-2” value [10]?
The value was “significantly decreased”.

What about the “expression of the pro-apoptotic protein Bak” value [11] of the same compound?
Its value is “significantly increased the expression”.

And the “cleavage of initiator caspase-9” value [12]?
The value was “induced the cleavage”.

What about the “cleavage (activation) of caspase-7” value [13] of the same compound?
Its value is “significantly increased the cleavage”.

What about the “cytotoxicity in normal cells, CHO” value [14] of the same compound?
Its value is “did not produce significant cytotoxicity”.

— article PMC8306139, “A Novel Dialkylamino-Functionalized Chalcone, DML6, Inhibits Cervical Cancer Cell Proliferation, In Vitro, via Induction of Oxidative Stress, Intrinsic Apoptosis and Mitotic Catastrophe” (Molecules, 2021)
